# Measurements published in article PMC10732257 (Oncotarget, 2023).
# pIC50: −log10 of the molar value.
# Legend:
# CDK9/cyclin T1(h) = CDK9/cyclin T1(h) (Homo sapiens, UniProt P50750); conditions: read-out: IC50 of inhibition of the CDK9/Cyclin T1 complex; radiometric kinase activity
# Experimental: Figure 2 Effect of GFH009 on CDK9 enzymatic activity. IC50 of GFH009 inhibition activity against the CDK9/cyclin T1 complex was determined with Eurofin KinaseProfiler radiometric protein kinase activity.
# GFH009 inhibition activity against the CDK9/cyclin T1 complex as well as off-target CDK family reactivity were assayed by Eurofins Pharma Discovery Services UK Ltd., (Dundee, UK). Determination of off-target inhibition of other kinases was conducted by DiscoverX LeadHunter Discovery Services (Freemont, CA, USA.) GFH009 reactivity to GPCR family members was assayed by Wuxi AppTech (Shanghai, China).
# CCKa = biological target: T1, CCKa (Homo sapiens, UniProt P32238); test: GPCR competitive antagonist (off-target inhibitory action) testing; format: cell-based
# T1 construct: Wuxi AppTech (contract laboratory)
# Excerpt: (§1) Supplementary Table 3: Results of off-target inhibitory action testing of GFH009 administered at
# (§2) Competitive antagonist activity against GPCR type shown below
# D1 (dopamine) = biological target: T2, D1 (dopamine) (Homo sapiens, UniProt P21728); test: as above; format: cell-based
# T2 construct: Wuxi AppTech (contract laboratory)
# Excerpt: as §1, §2
# D2 (dopamine) = biological target: T3, D2 (dopamine) (Homo sapiens, UniProt P14416); test: as above; format: cell-based
# T3 construct: Wuxi AppTech (contract laboratory)
# Excerpt: as §1, §2
# b2 (adrenoceptor) = biological target: T4, b2 (adrenoceptor) (Homo sapiens, UniProt P07550); test: as above; format: cell-based
# T4 construct: Wuxi AppTech (contract laboratory)
# Excerpt: as §1, §2
# H1 (histamine) = biological target: T5, H1 (histamine) (Homo sapiens, UniProt P35367); test: as above; format: cell-based
# T5 construct: Wuxi AppTech (contract laboratory)
# Excerpt: as §1, §2
# op-k (opioid) = op-k (opioid) (Homo sapiens, UniProt P41145); test: as above; format: cell-based
# Excerpt: as §1, §2
# AD2 (adenosine) = test: as above; format: cell-based
# Excerpt: as §1, §2
# op-d (opioid) = op-d (opioid) (Homo sapiens, UniProt P41143); test: as above; format: cell-based
# Excerpt: as §1, §2
# H2 (histamine) = H2 (histamine) (Homo sapiens, UniProt P25021); test: as above; format: cell-based
# Excerpt: as §1, §2
# CB1 (cannabinoid) = biological target: T6, CB1 (cannabinoid) (Homo sapiens, UniProt P21554); test: as above; format: cell-based
# T6 construct: Wuxi AppTech (contract laboratory)
# Excerpt: as §1, §2
# b1 (adrenoceptor) = biological target: T7, b1 (adrenoceptor) (Homo sapiens, UniProt P08588); test: as above; format: cell-based
# T7 construct: Wuxi AppTech (contract laboratory)
# Excerpt: as §1, §2
# a1a (adrenoceptor) = biological target: T8, a1a (adrenoceptor) (Homo sapiens, UniProt P35348); test: as above; format: cell-based
# T8 construct: Wuxi AppTech (contract laboratory)
# Excerpt: as §1, §2
# CB2 (cannabinoid) = biological target: T9, CB2 (cannabinoid) (Homo sapiens, UniProt P34972); test: as above; format: cell-based
# T9 construct: Wuxi AppTech (contract laboratory)
# Excerpt: as §1, §2
# 5-HT2B (serotonin) = biological target: T10, 5-HT2B (serotonin) (Homo sapiens, UniProt P41595); test: as above; format: cell-based
# T10 construct: Wuxi AppTech (Shanghai, China)
# Excerpt: as §1, §2
# ETA (endothelin) = biological target: T11, ETA (endothelin) (Homo sapiens, UniProt P25101); test: as above; format: cell-based
# T11 construct: Wuxi AppTech (contract laboratory)
# Excerpt: as §1, §2
# 5-HT2A (serotonin) = biological target: T12, 5-HT2A (serotonin) (Homo sapiens, UniProt P28223); test: as above; format: cell-based
# T12 construct: Wuxi AppTech (Shanghai, China)
# Excerpt: as §1, §2
# op-m (opioid) = op-m (opioid) (Homo sapiens, UniProt P35372); test: as above; format: cell-based
# Excerpt: as §1, §2
# a2a (adrenoceptor) = biological target: T13, a2a (adrenoceptor) (Homo sapiens, UniProt P08913); test: as above; format: cell-based
# T13 construct: Wuxi AppTech (contract laboratory)
# Excerpt: as §1, §2
# 5-HT1B (serotonin) = biological target: T14, 5-HT1B (serotonin) (Homo sapiens, UniProt P28222); test: as above; format: cell-based
# T14 construct: Wuxi AppTech (Shanghai, China)
# Excerpt: as §1, §2
# 5-HT1A (serotonin) = biological target: T15, 5-HT1A (serotonin) (Homo sapiens, UniProt P08908); test: as above; format: cell-based
# T15 construct: Wuxi AppTech (Shanghai, China)
# Excerpt: as §1, §2
# V1A (vasopressin) = V1A (vasopressin) (Homo sapiens, UniProt P37288); test: as above; format: cell-based
# Excerpt: as §1, §2
# [1] = test system: human hematological malignancy-derived cell lines; test: Cell viability / antiproliferative activity by CellTiter Glo; format: cell-based; conditions: in 7 of the 10 lines tested, 24 hours of exposure
# Experimental: Figure 3 Effect of GFH009 on cell proliferation in assorted human hematologic malignancy cell lines. Cell viability IC50s for GFH009 on human hematological malignancy-derived cell lines after 24 hours of exposure to the agent were determined using CellTiter Glo.
# The antiproliferative activity of GFH009 was assessed in cultured cell lines derived from human hematological malignancies over a period of 24-hour in vitro assay readouts. Enitociclib was used as a comparator for experimental validation (provided by MedChem Express, Monmouth, NJ, USA). Cell growth was analyzed by CellTiter Glo in 96-well plates and detected via chemiluminescent signal. The absolute inhibitory concentration of 50% (AbsIC50 values of the drug were calculated by fitting the drug inhibition rate curve with the “log (inhibitor) versus response – variable slope (4 parameters)” model by using the Prism GraphPad 6 for Windows v6.01 software.
structure (smiles),measurement,setting,value
COC[C@@H](C)NC1CCC(Nc2cc(-c3csc(NCC4(C#N)CCOCC4)n3)c(Cl)cn2)CC1 (some centres unmarked) [GFH009],pIC50,CDK9/cyclin T1(h),8.05
same,% Inhibitory Effect @ Max Dose (10 µM),CCKa,16.26%
same,% Inhibitory Effect @ Max Dose (10 µM),D1 (dopamine),1.10%
same,% Inhibitory Effect @ Max Dose (10 µM),D2 (dopamine),10.34%
same,% Inhibitory Effect @ Max Dose (10 µM),b2 (adrenoceptor),−3.46%
same,% Inhibitory Effect @ Max Dose (10 µM),H1 (histamine),12.37%
same,% Inhibitory Effect @ Max Dose (10 µM),op-k (opioid),11.54%
same,% Inhibitory Effect @ Max Dose (10 µM),AD2 (adenosine),−13.58%
same,% Inhibitory Effect @ Max Dose (10 µM),op-d (opioid),−15.46%
same,% Inhibitory Effect @ Max Dose (10 µM),H2 (histamine),−18.49%
same,% Inhibitory Effect @ Max Dose (10 µM),CB1 (cannabinoid),−9.21%
same,% Inhibitory Effect @ Max Dose (10 µM),b1 (adrenoceptor),30.48%
same,% Inhibitory Effect @ Max Dose (10 µM),a1a (adrenoceptor),68.39%
same,% Inhibitory Effect @ Max Dose (10 µM),CB2 (cannabinoid),−8.86%
same,% Inhibitory Effect @ Max Dose (10 µM),5-HT2B (serotonin),−24.98%
same,% Inhibitory Effect @ Max Dose (10 µM),ETA (endothelin),−0.32%
same,% Inhibitory Effect @ Max Dose (10 µM),5-HT2A (serotonin),−7.10%
same,% Inhibitory Effect @ Max Dose (10 µM),op-m (opioid),20.94%
same,% Inhibitory Effect @ Max Dose (10 µM),a2a (adrenoceptor),5.16%
same,% Inhibitory Effect @ Max Dose (10 µM),5-HT1B (serotonin),4.71%
same,% Inhibitory Effect @ Max Dose (10 µM),5-HT1A (serotonin),12.31%
same,% Inhibitory Effect @ Max Dose (10 µM),V1A (vasopressin),−1.57%
same,pIC50,[1],> 6.70
